The text below walks through data of patent US10822366B2, “Lincosamide derivatives, preparation and use thereof as antimicrobial agent” (MIKROBIOLOGICKY USTAV AV CR, V. V. I., priority 2017, dated 2020).

In brackets after ≈: the same amount, converted by molar mass.

One experiment deals with Kocuria rhizophila. The experiment is described as follows: Disc diffusion test (antibacterial activity). The experiment is classed as cell-based. The settings on record: paper discs (diameter 5 mm) saturated with 5 nmol compound; LB agar covered with lincomycin sensitive test strain Kocuria rhizophila; 37° C., 20 h. The procedure:
Filtration paper discs (geometric diameter 5 mm) saturated with 5 nmol of tested novel lincosamide compounds were placed on LB agar plates (tryptone 10 g, yeast extract 5 g, NaCl 10 g, supplemented with distilled water to 1000 mL, pH 7.5; agar 15 g) continuously covered with culture of the lincomycin sensitive test strain Kocuria rhizophila. The plates were incubated at 37° C. for 20 h.
On the technique in general: A growth-free zone around the sample is the usual read-out of agar diffusion tests.

The test system of another experiment is K. rhizophila. Put plainly: Minimum inhibitory concentration determination (EUCAST method). Type of experiment: cell-based, Kocuria rhizophila. The settings on record: K. rhizophila in LB medium, concentration range 25-1600 nM tested, 24 h at 37° C. On the procedure:
Minimum inhibitory concentrations were determined using the previously published method (European Committee for Antimicrobial Susceptibility Testing (EUCAST), Clin Microbiol Infect (2003), 9 (8), ix-xv). 5 μL suspension (McFarland scale 0.5) of K. rhizophila bacterial culture was inoculated into 1 mL of LB medium containing test substances of the desired concentration (a concentration range of 25-1600 nM was tested). The cultures were incubated for 24 h at 37° C.

For orientation: MIC means the lowest concentration found to suppress growth. Regarding `CO[C@H](C)[C@@H](NC(=O)[C@@H]1CCCN1C)[C@H]1O[C@H](SCCOC(=O)c2ccccc2O)[C@H](O)[C@@H](O)[C@H]1O` [Celesticetin], the “Disc diffusion test: size of inhibition zones” value in the experiment on Kocuria rhizophila is 19 mm. Also, the MIC against K. rhizophila stood at 1.6 µM (≈ 0.846 µg/mL).

As to `CCC[C@@H]1C[C@@H](C(=O)N[C@@H]([C@H]2O[C@H](SCCOC(=O)c3ccccc3O)[C@H](O)[C@@H](O)[C@H]2O)[C@@H](C)OC)N(C)C1`, the “Disc diffusion test: size of inhibition zones” value in the experiment with Kocuria rhizophila was 28 mm. In the experiment with K. rhizophila (Kocuria rhizophila), this molecule showed an MIC of 0.1 µM (≈ 0.0571 µg/mL).

With `CCC[C@@H]1C[C@@H](C(=O)N[C@@H]([C@H]2O[C@H](SC)[C@H](O)[C@@H](O)[C@H]2O)[C@@H](C)O)N(C)C1` [Lincomycin], in the experiment on Kocuria rhizophila, the “Disc diffusion test: size of inhibition zones” value was 24 mm. In the experiment with K. rhizophila, this molecule returned an MIC of 0.4 µM (≈ 0.163 µg/mL).

Regarding `CCC[C@@H]1C[C@@H](C(=O)N[C@@H]([C@H]2O[C@H](SCCOC(=O)c3ccccc3O)[C@H](O)[C@@H](O)[C@H]2O)[C@@H](C)O)N(C)C1`, in the experiment with Kocuria rhizophila, the “Disc diffusion test: size of inhibition zones” value was found to be 29 mm. In the experiment on K. rhizophila (Kocuria rhizophila), this molecule yielded a minimum inhibitory concentration (MIC) of 0.1 µM (≈ 0.0557 µg/mL).
